From patent US20130203805A1, “Methods for treating anemia using inhibitors of hypoxia-inducible factor (HIF) hydroxylase” (FIBROGEN, INC., priority 2001, published 2013)

What was measured:
[1] = tested on: erythropoietin transcript; assay: Erythropoietin transcript in tissues by Murine genome U74AV2 array (Example 7); type: in vivo, male Swiss Webster mice; details: mice
Experimental: Twenty-five male Swiss Webster mice (35-38 g) were obtained from Simonson, Inc., and treated by oral gavage […] for 2.5 days (5 doses) with a 4 ml/kg volume of either 0.5% carboxymethyl cellulose (CMC; Sigma-Aldrich, St. Louis Mo.) (0 mg/kg/day), compound C at 30 or 100 mg/kg/day […], or blood was collected daily from animals as described above to induce anemia. Blood samples were collected and kidney, liver, brain, lung, heart, and skeletal muscle tissues were harvested and processed as for Example 2, Experiment I (supra).
RNA isolation was carried out using the following protocol. A 50 mg section of each organ was diced, 875 μl of RLT buffer (RNEASY kit; Qiagen Inc., Valencia Calif.) was added, and the pieces were homogenized for about 20 seconds using a rotor-stator POLYTRON homogenizer (Kinernatica, Inc., Cincinnati Ohio). The homogenate was micro-centrifuged for 3 minutes to pellet insoluble material, the supernatant was transferred to a new tube and RNA was isolated using an RNEASY kit (Qiagen) according to the manufacturer's instructions. The RNA was eluted into 80 μL of water and quantitated with RIBOGREEN reagent (Molecular Probes, Eugene Oreg.). Genomic DNA was then removed from the RNA using a DNA-FREE kit (Ambion Inc, Austin Tex.) according to the manufacturer's instructions. The absorbance at 260 and 280 nm was measured to determine RNA purity and concentration.
RNA was precipitated in 0.3 M sodium acetate (pH 5.2), 50 ng/ml glycogen, and 2.5 volumes of ethanol for one hour at −20° C. Samples were centrifuged and pellets were washed with cold 80% ethanol, dried, and resuspend in water. Double stranded cDNA was synthesized using a T7-(dT)24 first strand primer (Affymetrix, Inc., Santa. Clara Calif.) and the […] CHOICE system (Invitrogen) according to the manufacturer's instructions. The final cDNA was extracted with an equal volume of 25:24:1 phenol:chloroform:isoamyl alcohol using a PHASE LOCK GEL insert (Brinkman, Inc., Westbury N.Y.). The aqueous phase was collected and cDNA was precipitated using 0.5 volumes of 7.5 M ammonium acetate and 2.5 volumes of ethanol. Alternatively, cDNA was purified using the […] sample cleanup module (Affymetrix) according to the manufacturer's instructions. […]
Hybridization cocktail was prepared by bringing 5 μg probe to 100 μl in 1× hybridization buffer (100 mM MES, 1 M [Na^+], 20 mM EDTA, 0.01% Tween 20), 100 μg/ml herring sperm DNA, 500 μg/ml acetylated BSA, 0.03 nM control oligo B2 (Affymetrix), and 1× […] eukaryotic hybridization control (Affymetrix). […] Arrays were analyzed using a […] scanner (Affymetrix) and Microarray Suite software (Affymetrix). […]

[2] = Dose response in vivo: reticulocytes, hemoglobin, hematocrit (Example 3); design: species or system Sprague Dawley male rats; details: rats
Experimental: Twelve Sprague Dawley male rats (approx. 260 g) were obtained from Charles River Laboratories, Inc., and treated by oral gavage as follows: (1) Four rats were dosed daily for days 1 to 7 with 0.5% carboxymethyl cellulose (CMC; Sigma-Aldrich, St. Louis Mo.) (0 mg/kg), were not treated for days 8 to 14, and then were dosed daily for days 15 to 19 with 0.5% CMC (0 mg/kg); (2) four animals were treated on day 0 and day 3 with a total of 7 ml/kg/day of 5.0% compound C (50 mg/ml in 0.5% CMC) (350 mg/kg), were not treated days 8 to 14, and then were dosed daily for days 15 to 19 with 3% compound C: (30 mg/ml in 0.5% CMC) (60 mg/kg/day); and (3) four animals were treated daily for days 1 to 7 with a total volume of 4 ml/kg/day of 2.5% compound C (25 mg/ml in 0.5% CMC) (100 mg/kg), were not treated days 8 to 14, and then were dosed daily for days 15 to 19 with 3% compound C (60 mg/kg/day). Thus, groups (2) and (3) received a total of 700 mg compound/kg body weight over the first 7 days, no treatment from days 8 to 14, and then 60 mg/kg/day for another 5 days. Animals were monitored for change in body weight and signs of toxicity. Blood samples (2×0.5 ml) were collected on days 1, 3, 7, 10, 17 and 21 as follows. Animals were anesthetized with isoflurane and 0.5 ml of blood was collected from the tail vein of each animal into each of two MICROTAINER EDTA-2K tubes (Becton-Dickinson). Blood samples were processed for erythropoietin levels, hemoglobin, and hematocrit as described above.

[3] = 30 or 100 mg/kg/day oral gavage for 4 days, FIG. 6

O=C(O)CNC(=O)c1nc(Cl)c2ccccc2c1O [Compound C, [(1-chloro-4-hydroxy-isoquinoline-3-carbonyl)-amino]-acetic acid]
erythropoietin transcript, brain [1, 3]: dose-dependent increase
erythropoietin transcript, kidney [1, 3]: dose-dependent increase
erythropoietin transcript, liver [1, 3]: dose-dependent increase
level of expression versus transcription seen with bleed-induced anemia in the same tissue ([1]; brain, kidney, liver, 30 or 100 mg/kg/day oral gavage): equivalent to or exceeded
increase in hemoglobin and hematocrit with lower doses ([2]; 60 mg/kg/day days 15 to 19 after no treatment days 8 to 14): maintained over an extended period of time
immature blood cells (reticulocytes) ([2]; oral gavage, total 700 mg/kg over first 7 days, FIG. 4B): subsequent increase
blood hemoglobin levels ([2]; oral gavage, total 700 mg/kg over first 7 days, FIG. 4C): increased
hematocrit ([2]; oral gavage, total 700 mg/kg over first 7 days, FIG. 4D): increased
